Test results published in publication PMC10970593, “Jozimine A2, a Dimeric Naphthylisoquinoline (NIQ) Alkaloid, Shows In Vitro Cytotoxic Effects against Leukemia Cells through NF-κB Inhibition” (International Journal of Molecular Sciences, 2024).
Where two headings read alike, the source gives them in different places.

Target: T1, NF-κB (human recombinant; p65 subunit used in docking) (Homo sapiens, UniProt Q04206)
T1 construct: gene RELA; human recombinant NF-κB protein, Sino Biological cat; No. 12054-H09E
Assay: microscale thermophoresis with labeled recombinant protein
Assay type: binding

Kd (read-out: Kd) [nM] | Compound | Kd [nM]
1660 ± 12 | COc1cccc2c(-c3ccc4c(c3O)[C@@H](C)N[C@H](C)C4)c(C)c(-c3c(C)c(-c4ccc5c(c4O)[C@@H](C)N[C@H](C)C5)c4cccc(OC)c4c3O)c(O)c12 [jozimine A2] | –
– | COc1cc(C)cc2c(-c3c(O)cc(O)c4c3C[C@@H](C)N[C@@H]4C)cc(-c3cc(-c4c(O)cc(O)c5c4C[C@@H](C)N[C@@H]5C)c4cc(C)cc(OC)c4c3O)c(O)c12 [michellamine B] | 2800 ± 94
